Results from patent US20260130395A1, “Water Dispersible Botanical Compositions” (Aquila Black Limited, priority 2021, published 2026).

Experiments:
[1] = Stability of cannabinoid entourage and Vitamin E components of the powder concentrate by LCMSMS; type: physicochemical; details: powder stored at 21-25° C.
Procedure: At each time period, 0.05 g of powder was dissolved in 10 ml-15 of ethanol, diluted to fall within the analytical range, and injected into the LCMSMS for analysis.

[2] = Stability of cannabinoid compounds and Vitamin E components in Beverage 1 (AB White) by LCMSMS; type: physicochemical; details: AB White stored at 8° C.
Procedure: The stability of the plant-derived cannabinoid compounds and Vitamin E components of the beverage stored 8° C. and at room temperature (21-25° C.) were monitored, over a period of 570 days via Liquid Chromatography-tandem Mass Spectrometry [LCMSMS, Agilent 6590, C18, 3×50 mm, 2.7 m (Agilent InfinityLab Poroshell 120 EC-C18), Electrospray Ionization detector]. The LCMSMS was calibrated for 0-1000 ng/ml cannabinoids with the same resin material used in the preparation of the concentrates. At each time period, 100 ml of beverage was diluted with 10 ml of methanol and injected into the LCMSMS for analysis.

Structure (SMILES): CCCCCc1cc(O)c(C/C=C(\C)CCC=C(C)C)c(O)c1 [CBG, cannabigerol]
- Stability of Plant-Derived Cannabinoid Compounds in Powder Concentrate ([1]; 0 days): 1.1 mg/g powder
- Stability of Plant-Derived Cannabinoid Compounds in Powder Concentrate ([1]; 1 days): 1.07 mg/g powder
- Stability of Plant-Derived Cannabinoid Compounds in Powder Concentrate ([1]; 2 days): 1.08 mg/g powder
- Stability of Plant-Derived Cannabinoid Compounds in Powder Concentrate ([1]; 3 days): 1.09 mg/g powder
- Stability of Plant-Derived Cannabinoid Compounds in Powder Concentrate ([1]; 5 days): 1.11 mg/g powder
- Stability of Plant-Derived Cannabinoid Compounds in Powder Concentrate ([1]; 8 days): 1.07 mg/g powder
- Stability of Plant-Derived Cannabinoid Compounds in Powder Concentrate ([1]; 9 days): 1.09 mg/g powder
- Stability of Plant-Derived Cannabinoid Compounds in Powder Concentrate ([1]; 10 days): 1.08 mg/g powder
- Stability of Plant-Derived Cannabinoid Compounds in Powder Concentrate ([1]; 11 days): 1.14 mg/g powder
- Stability of Plant-Derived Cannabinoid Compounds in Powder Concentrate ([1]; 12 days): 1.10 mg/g powder
- Stability of Plant-Derived Cannabinoid Compounds in Powder Concentrate ([1]; 15 days): 1.08 mg/g powder
- Stability of Plant-Derived Cannabinoid Compounds in Powder Concentrate ([1]; 16 days): 1.06 mg/g powder
- Stability of Plant-Derived Cannabinoid Compounds in Powder Concentrate ([1]; 17 days): 1.06 mg/g powder
- Stability of Plant-Derived Cannabinoid Compounds in Powder Concentrate ([1]; 18 days): 1.13 mg/g powder
- Stability of Plant-Derived Cannabinoid Compounds in Powder Concentrate ([1]; 19 days): 1.14 mg/g powder
- Stability of Plant-Derived Cannabinoid Compounds in Powder Concentrate ([1]; 22 days): 1.12 mg/g powder
- Stability of Plant-Derived Cannabinoid Compounds in Powder Concentrate ([1]; 23 days): 1.13 mg/g powder
- Stability of Plant-Derived Cannabinoid Compounds in Powder Concentrate ([1]; 24 days): 1.09 mg/g powder
- Stability of Plant-Derived Cannabinoid Compounds in Powder Concentrate ([1]; 25 days): 1.13 mg/g powder
- Stability of Plant-Derived Cannabinoid Compounds in Powder Concentrate ([1]; 26 days): 1.14 mg/g powder
- Stability of Plant-Derived Cannabinoid Compounds in Powder Concentrate ([1]; 29 days): 1.10 mg/g powder
- Stability of Plant-Derived Cannabinoid Compounds in Powder Concentrate ([1]; 30 days): 1.07 mg/g powder
- Stability of Plant-Derived Cannabinoid Compounds in Powder Concentrate ([1]; 60 days): 1.11 mg/g powder
- Stability of Plant-Derived Cannabinoid Compounds in Powder Concentrate ([1]; 90 days): 1.13 mg/g powder
- Stability of Plant-Derived Cannabinoid Compounds in Powder Concentrate ([1]; 120 days): 1.09 mg/g powder
- Stability of Plant-Derived Cannabinoid Compounds in Powder Concentrate ([1]; 150 days): 1.11 mg/g powder
- Stability of Plant-Derived Cannabinoid Compounds in Powder Concentrate ([1]; 180 days): 1.07 mg/g powder
- Stability of Plant-Derived Cannabinoid Compounds in Powder Concentrate ([1]; 210 days): 1.06 mg/g powder
- Stability of Plant-Derived Cannabinoid Compounds in Powder Concentrate ([1]; 240 days): 1.12 mg/g powder
- Stability of Plant-Derived Cannabinoid Compounds in Powder Concentrate ([1]; 270 days): 1.15 mg/g powder
- Stability of Plant-Derived Cannabinoid Compounds in Powder Concentrate ([1]; 300 days): 1.09 mg/g powder
- Stability of Plant-Derived Cannabinoid Compounds in Powder Concentrate ([1]; 330 days): 1.10 mg/g powder
- Stability of Plant-Derived Cannabinoid Compounds in Powder Concentrate ([1]; 360 days): 1.09 mg/g powder
- Stability of Plant-Derived Cannabinoid Compounds in Powder Concentrate ([1]; 390 days): 1.14 mg/g powder
- Stability of Plant-Derived Cannabinoid Compounds in Powder Concentrate ([1]; 420 days): 1.11 mg/g powder
- Stability of Plant-Derived Cannabinoid Compounds in Powder Concentrate ([1]; 450 days): 1.06 mg/g powder
- Stability of Plant-Derived Cannabinoid Compounds in Powder Concentrate ([1]; 480 days): 1.12 mg/g powder
- Stability of Plant-Derived Cannabinoid Compounds in Powder Concentrate ([1]; 510 days): 1.07 mg/g powder
- Stability of Plant-Derived Cannabinoid Compounds in Powder Concentrate ([1]; 540 days): 1.07 mg/g powder
- Stability of Plant-Derived Cannabinoid Compounds in Powder Concentrate ([1]; 570 days): 1.06 mg/g powder
- Stability of Plant-Derived Cannabinoid Compounds in AB White, 8° C. ([2]; 0 days): 4.87 µg/mL
- Stability of Plant-Derived Cannabinoid Compounds in AB White, 8° C. ([2]; 1 days): 4.74 µg/mL
- Stability of Plant-Derived Cannabinoid Compounds in AB White, 8° C. ([2]; 2 days): 4.91 µg/mL
- Stability of Plant-Derived Cannabinoid Compounds in AB White, 8° C. ([2]; 3 days): 4.74 µg/mL
- Stability of Plant-Derived Cannabinoid Compounds in AB White, 8° C. ([2]; 5 days): 4.88 µg/mL
- Stability of Plant-Derived Cannabinoid Compounds in AB White, 8° C. ([2]; 8 days): 4.86 µg/mL
- Stability of Plant-Derived Cannabinoid Compounds in AB White, 8° C. ([2]; 9 days): 4.89 µg/mL
- Stability of Plant-Derived Cannabinoid Compounds in AB White, 8° C. ([2]; 10 days): 4.77 µg/mL
- Stability of Plant-Derived Cannabinoid Compounds in AB White, 8° C. ([2]; 11 days): 4.87 µg/mL
- Stability of Plant-Derived Cannabinoid Compounds in AB White, 8° C. ([2]; 12 days): 4.87 µg/mL
- Stability of Plant-Derived Cannabinoid Compounds in AB White, 8° C. ([2]; 15 days): 4.81 µg/mL
- Stability of Plant-Derived Cannabinoid Compounds in AB White, 8° C. ([2]; 16 days): 4.84 µg/mL
- Stability of Plant-Derived Cannabinoid Compounds in AB White, 8° C. ([2]; 17 days): 4.78 µg/mL
- Stability of Plant-Derived Cannabinoid Compounds in AB White, 8° C. ([2]; 18 days): 4.81 µg/mL
- Stability of Plant-Derived Cannabinoid Compounds in AB White, 8° C. ([2]; 19 days): 4.83 µg/mL
- Stability of Plant-Derived Cannabinoid Compounds in AB White, 8° C. ([2]; 22 days): 4.75 µg/mL
- Stability of Plant-Derived Cannabinoid Compounds in AB White, 8° C. ([2]; 23 days): 4.89 µg/mL
- Stability of Plant-Derived Cannabinoid Compounds in AB White, 8° C. ([2]; 24 days): 4.83 µg/mL
- Stability of Plant-Derived Cannabinoid Compounds in AB White, 8° C. ([2]; 25 days): 4.89 µg/mL
- Stability of Plant-Derived Cannabinoid Compounds in AB White, 8° C. ([2]; 26 days): 4.77 µg/mL
